In patent US9365604B2, “Oligomer-nucleoside phosphate conjugates” (NEKTAR THERAPEUTICS, priority 2007, dated 2016):
Like-named read-outs stand apart in the source and are kept apart here.

Legend:
MDCK cells [1] = system: MDCK cells
Text: (§6) Bi-Directional Permeability of PEG-Floxuridine Conjugates in Caco-2 and MDCK Cells

[2] = Bi-directional permeability in MDCK cells; conditions: dog
Text: as §6

Caco-2 cells [3] = system: Caco-2 cells
Text: as §6

in vitro [4] = conditions: dog, MDCK
Text: as §6

[5] = Bi-directional permeability in Caco-2 cells; conditions: human
Text: as §6

in vitro [6] = conditions: human, Caco-2
Text: as §6

DU145 = test: Sulforhodamine B (SRB) growth inhibition assay; assay type: cell-based, Human; conditions: for ratio vs flox (GI50) DU145: GI50 of conjugate vs floxuridine; for GI50: SRB assay, cells exposed for 24 h, read-out: GI50 values (μM) DU145
Procedure: (§1) The aim was to determine the GI50 values for PEG-floxuridine conjugates against a panel of cell lines, and based on previous data from Xenograft studies. […] The test articles were solubilized in dimethylsulfoxide and were tested at four different molar (M) concentrations; 10^−4, 10^−5, 10^−6, M. GI50 (the concentration needed to reduce the growth of treated cells to half that of untreated control cells) was calculated for each condition ([(Ti−Tz)/(C-Tz)]×100=50, where Ti, Tz, and C refer to absorbance values obtained from each tested concentration, time zero, and control treatment, respectively).
as §1, with “The objective” for “The aim”, “the IC50” for “the GI50”, “for PEG-gemcitabine” for “for PEG-floxuridine”, “in dimethyl sulfoxide” for “in dimethylsulfoxide”, “10^−6, 10^−7” for “10^−6,”, “condition ([(Ti−Tz)/(C−Tz)]×100=50,” for “condition ([(Ti−Tz)/(C-Tz)]×100=50,”

MCF7 = test: Sulforhodamine B (SRB) growth inhibition assay; assay type: cell-based, Human; conditions: for ratio vs flox (GI50) MCF7: GI50 of conjugate vs floxuridine; for GI50: SRB assay
Procedure: (§2) In Vitro Screening of PEG-Gemcitabine Monophosphate in Selected Human Cancer Cell Lines
as §1
as §1, with “The objective” for “The aim”, “the IC50” for “the GI50”, “for PEG-gemcitabine” for “for PEG-floxuridine”, “in dimethyl sulfoxide” for “in dimethylsulfoxide”, “10^−6, 10^−7” for “10^−6,”, “condition ([(Ti−Tz)/(C−Tz)]×100=50,” for “condition ([(Ti−Tz)/(C-Tz)]×100=50,”

HT29 = test: Sulforhodamine B (SRB) growth inhibition assay; assay type: cell-based, Human; conditions: for ratio vs flox (GI50) HT29: GI50 of conjugate vs floxuridine; for GI50: SRB assay, cells exposed for 24 h, read-out: GI50 values (μM) HT29
Procedure: as §2, §1
as §1, with “The objective” for “The aim”, “the IC50” for “the GI50”, “for PEG-gemcitabine” for “for PEG-floxuridine”, “in dimethyl sulfoxide” for “in dimethylsulfoxide”, “10^−6, 10^−7” for “10^−6,”, “condition ([(Ti−Tz)/(C−Tz)]×100=50,” for “condition ([(Ti−Tz)/(C-Tz)]×100=50,”

A2780 = test: Sulforhodamine B (SRB) growth inhibition assay; assay type: cell-based, Human; conditions: for ratio vs flox (GI50) A2780: GI50 of conjugate vs floxuridine; for GI50: SRB assay, cells exposed for 24 h, read-out: GI50 values (μM) A2780
Procedure: as §2, §1
as §1, with “The objective” for “The aim”, “the IC50” for “the GI50”, “for PEG-gemcitabine” for “for PEG-floxuridine”, “in dimethyl sulfoxide” for “in dimethylsulfoxide”, “10^−6, 10^−7” for “10^−6,”, “condition ([(Ti−Tz)/(C−Tz)]×100=50,” for “condition ([(Ti−Tz)/(C-Tz)]×100=50,”

Hop62 = test: Sulforhodamine B (SRB) growth inhibition assay; assay type: cell-based, Human; conditions: for ratio vs flox (GI50) Hop62: GI50 of conjugate vs floxuridine; for GI50: SRB assay, cells exposed for 24 h, read-out: GI50 values (μM) Hop62
Procedure: as §2, §1
as §1, with “The objective” for “The aim”, “the IC50” for “the GI50”, “for PEG-gemcitabine” for “for PEG-floxuridine”, “in dimethyl sulfoxide” for “in dimethylsulfoxide”, “10^−6, 10^−7” for “10^−6,”, “condition ([(Ti−Tz)/(C−Tz)]×100=50,” for “condition ([(Ti−Tz)/(C-Tz)]×100=50,”

NCI/ADR-RES = test: Sulforhodamine B (SRB) growth inhibition assay; assay type: cell-based, Human; conditions: cells exposed for 24 h, read-out: GI50 values (μM) NCI/ADR-RES
Procedure: as §2
(§3) The aim was to determine the GI50 values for PEG-floxuridine conjugates against a panel of cell lines, and based on previous data from Xenograft studies. The cells were exposed for 24 h, and cell viability assessed by using the Sulphorhodamine (SRB) assay. The test articles were solubilized in dimethylsulfoxide and were tested at four different molar (M) concentrations; 10^−4, 10^−5, 10^−6, M. GI50 (the concentration needed to reduce the growth of treated cells to half that of untreated control cells) was calculated for each condition ([(Ti−Tz)/(C-Tz)]×100=50, where Ti, Tz, and C refer to absorbance values obtained from each tested concentration, time zero, and control treatment, respectively).
as §3, with “The objective” for “The aim”, “the IC50” for “the GI50”, “for PEG-gemcitabine” for “for PEG-floxuridine”, “in dimethyl sulfoxide” for “in dimethylsulfoxide”, “10^−6, 10^−7” for “10^−6,”, “condition ([(Ti−Tz)/(C−Tz)]×100=50,” for “condition ([(Ti−Tz)/(C-Tz)]×100=50,”

CAKI-1 = test: In vitro cytotoxicity assay (CellTiter-Glo); assay type: cell-based; conditions: for IC50: 72 h exposure, CellTiter-Glo
MIA PaCa-2 = test: In vitro cytotoxicity assay (CellTiter-Glo); assay type: cell-based; conditions: for IC50: 72 h exposure, CellTiter-Glo
Procedure: (§4) The objective of these studies were to determine the IC50 values for PEG-floxuridine conjugates against floxuridine-resistant cell lines based on data from previous Xenograft studies. The cells were exposed for 72 h, and cell viability assessed by using the CellTiter-Glo assay.
(§5) The objective of these studies was to determine the IC50 values for PEG-gemcitabine conjugates against gemcitabine-resistant cell lines based on data from previous Xenograft studies. The cells were exposed for 72 h, and cell viability assessed by using the CellTiter-Glo assay.

HT-29 = test: In vitro cytotoxicity assay (CellTiter-Glo); assay type: cell-based; conditions: for IC50: 72 h exposure, CellTiter-Glo
Procedure: as §4, §5

HCT-116 = test: In vitro cytotoxicity assay (CellTiter-Glo); assay type: cell-based; conditions: for IC50: 72 h exposure, CellTiter-Glo
Procedure: as §4, §5

HCT15 = test: Sulforhodamine B (SRB) growth inhibition assay; assay type: cell-based, Human; conditions: SRB assay, cells exposed for 24 h, read-out: GI50 values (μM) HCT15
Procedure: as §2, §1
as §1, with “The objective” for “The aim”, “the IC50” for “the GI50”, “for PEG-gemcitabine” for “for PEG-floxuridine”, “in dimethyl sulfoxide” for “in dimethylsulfoxide”, “10^−6, 10^−7” for “10^−6,”, “condition ([(Ti−Tz)/(C−Tz)]×100=50,” for “condition ([(Ti−Tz)/(C-Tz)]×100=50,”

COLO205 = test: Sulforhodamine B (SRB) growth inhibition assay; assay type: cell-based, Human; conditions: COLO205; SRB assay, cells exposed for 24 h; read-out: GI50 values (μM) COLO205
Procedure: as §2, §1
as §1, with “The objective” for “The aim”, “the IC50” for “the GI50”, “for PEG-gemcitabine” for “for PEG-floxuridine”, “in dimethyl sulfoxide” for “in dimethylsulfoxide”, “10^−6, 10^−7” for “10^−6,”, “condition ([(Ti−Tz)/(C−Tz)]×100=50,” for “condition ([(Ti−Tz)/(C-Tz)]×100=50,”

MDCK cells [7] = test: Bi-directional permeability in MDCK cells
Text: as §6

Caco-2 cells [8] = test: Bi-directional permeability in Caco-2 cells
Text: as §6

[9] = cells exposed for 24 h, read-out: GI50 values (μM) MCF7

| SMILES | Significant efflux (MDCK cells [1]) | Significant efflux (Caco-2 cells [3]) | ratio vs flox (GI50) DU145 (DU145) | GI50 (DU145) | ratio vs flox (GI50) MCF7 (MCF7) | GI50 (MCF7; [9]) | ratio vs flox (GI50) HT29 (HT29) | GI50 (HT29) | ratio vs flox (GI50) A2780 (A2780) | GI50 (A2780) | ratio vs flox (GI50) Hop62 (Hop62) | GI50 (Hop62) | GI50 (NCI/ADR-RES) | Ratio vs floxuridine (IC50) CAKI-1 (CAKI-1) | IC50 (CAKI-1) | Ratio vs floxuridine (IC50) MIA PaCa-2 (MIA PaCa-2) | IC50 (MIA PaCa-2) | Ratio vs floxuridine (IC50) HT-29 (HT-29) | IC50 (HT-29) | Ratio vs floxuridine (IC50) HCT-116 (HCT-116) | further results |
| --- | --- | --- | --- | --- | --- | --- | --- | --- | --- | --- | --- | --- | --- | --- | --- | --- | --- | --- | --- | --- | --- |
| CCCCCOC(=O)Nc1nc(=O)n([C@@H]2O[C@H](C)[C@@H](O)[C@H]2O)cc1F [Capecitabine] | No | Yes |  |  |  |  |  |  |  |  |  |  |  |  |  |  |  |  |  |  | permeability through MDCK monolayers (in words) (MDCK cells [1]): relatively poor permeability; Papp B-A/Papp A-B (MDCK cells [1]; dog): 0.9; recovery ([2]; percent recovery A -> B): 104%; recovery ([2]; percent recovery B -> A): 99%; Absorption potential (Caco-2 cells [3]): High; permeability across Caco-2 monolayers (in words) (Caco-2 cells [3]): high permeability; Papp B-A/Papp A-B (Caco-2 cells [3]; human): 3.9; Papp A→B (in vitro [4]): 0.16 ×10⁻⁶ cm/s; Papp B→A (in vitro [4]): 0.14 ×10⁻⁶ cm/s; efflux ratio (in vitro [4]): 0.9; recovery ([5]; Caco-2, percent recovery A -> B): 110%; recovery ([5]; Caco-2, percent recovery B -> A): 99%; Papp A→B (in vitro [6]): 2.22 ×10⁻⁶ cm/s; Papp B→A (in vitro [6]): 8.71 ×10⁻⁶ cm/s; efflux ratio (in vitro [6]): 3.9 |
| COCCOCCOCCOP(=O)(OCCOCCOCCOC)OC[C@H]1O[C@@H](n2cc(F)c(=O)[nH]c2=O)C[C@@H]1O [Floxuridine Di (mPEG3), 5′-floxuridine di-methoxy tri(ethylene glycol) phosphate] |  |  | 4 | > 100 µM | 667 | > 100 µM | 4 | > 100 µM | 1538 | > 100 µM | 417 | > 100 µM |  |  |  |  |  |  |  |  |  |
| COCCOCCOCCOCCOCCOCCOCCOP(=O)(OCCOCCOCCOCCOCCOCCOCCOC)OC[C@H]1O[C@@H](n2cc(F)c(=O)[nH]c2=O)C[C@@H]1O [Floxuridine Di (mPEG7), 5′-floxuridine di-methoxy hepta(ethylene glycol) phosphate] |  |  | 4 | > 100 µM | 667 | > 100 µM | 4 | > 100 µM | 1538 | > 100 µM | 417 | > 100 µM |  |  |  |  |  |  |  |  |  |
| COCCOCCOCCOP(=O)(O)OC[C@H]1O[C@@H](n2cc(F)c(=O)[nH]c2=O)C[C@@H]1O [Floxuridine Mono (mPEG3), 5′-floxuridine methoxy tri(ethylene glycol) phosphate] | No | No | 0.005 | 0.12 µM | 0.7 | 0.11 µM | 4 | > 100 µM | 32 | 2.1 µM | 417 | > 100 µM | < 0.1 µM | 1 | 145 nM | 1 | 64 nM | 1 | 87 nM | 2 | Papp A -> B (MDCK cells [1]): <0.06 10^−6 cm/s; Papp B -> A (MDCK cells [1]): <0.07 10^−6 cm/s; percent recovery A -> B (MDCK cells [1]): 98%; percent recovery B -> A (MDCK cells [1]): 98%; IC50 (HCT-116): 56 nM; Papp A -> B (Caco-2 cells [3]): <0.19 10^−6 cm/s; Papp B -> A (Caco-2 cells [3]): <0.25 10^−6 cm/s; percent recovery A -> B (Caco-2 cells [3]): 96%; percent recovery B -> A (Caco-2 cells [3]): 94%; GI50 (HCT15): 32 µM; GI50 (COLO205): 1.8 µM |
| COCCOCCOCCOCCOCCOCCOCCOP(=O)(O)OC[C@H]1O[C@@H](n2cc(F)c(=O)[nH]c2=O)C[C@@H]1O [Floxuridine Mono (mPEG7), 5′-floxuridine methoxy hepta(ethylene glycol) phosphate] |  |  | 0.005 | 0.13 µM | 0.9 | 0.13 µM | 4 | > 100 µM | 35 | 2.3 µM | 417 | > 100 µM | < 0.1 µM | 1 | 157 nM | 2 | 96 nM | 1 | 76 nM | 2 | Papp A -> B (MDCK cells [7]): <0.06 10^−6 cm/s; Papp B -> A (MDCK cells [7]): <0.08 10^−6 cm/s; Significant efflux (MDCK cells [7]): No; percent recovery A -> B (MDCK cells [7]): 100%; percent recovery B -> A (MDCK cells [7]): 90%; IC50 (HCT-116): 48 nM; GI50 (MCF7; 48 h drug exposure, read-out: GI50 in MCF7): 2.2 µM; GI50 (HCT15): ~32 µM; GI50 (COLO205): 1.9 µM; Papp A -> B (Caco-2 cells [8]): 0.14 10^−6 cm/s; Papp B -> A (Caco-2 cells [8]): 0.06 10^−6 cm/s; Papp B-A/Papp A-B (Caco-2 cells [8]): 0.4; Significant efflux (Caco-2 cells [8]): No; percent recovery A -> B (Caco-2 cells [8]): 79%; percent recovery B -> A (Caco-2 cells [8]): 89% |
